# Reference: ChEMBL document CHEMBL3885881, “DrugMatrix”
# Species on record: Rattus norvegicus
# Assay: DrugMatrix - Regimen: Daily Repeat
# Type: toxicity, organism-based, Sprague-Dawley
# Design: regimen Daily Repeat, gender Male, age 6-8 weeks
# Conditions: in vivo, po, route oral GAVAGE, vehicle 100 % WATER; for ABSOLUTE BASOPHIL / ABSOLUTE EOSINOPHIL / ABSOLUTE LYMPHOCYTE / ABSOLUTE MONOCYTE / ABSOLUTE SEGMENTED NEUTROPHIL / BASOPHIL / EOSINOPHIL / ERYTHROCYTE COUNT / HEMATOCRIT / HEMOGLOBIN / LEUKOCYTE COUNT / LYMPHOCYTE / MEAN CORPUSCULAR HEMOGLOBIN / MEAN CORPUSCULAR HEMOGLOBIN CONCENTRATION / MEAN CORPUSCULAR VOLUME / MONOCYTE / NEUTROPHIL / NUCLEATED RED BLOOD CELLS / PLATELET COUNT: tissue Blood; for ALANINE AMINOTRANSFERASE / ALBUMIN / ALKALINE PHOSPHATASE / ASPARTATE AMINOTRANSFERASE / BLOOD UREA NITROGEN / CARBON DIOXIDE / CHLORIDE / CHOLESTEROL / CREATINE PHOSPHOKINASE / CREATININE / GLUCOSE / LACTATE DEHYDROGENASE / LIPASE / PHOSPHORUS / POTASSIUM / SODIUM / TOTAL BILIRUBIN / TOTAL PROTEIN / URIC ACID: tissue Plasma
# [1] = 0 mg/kg, 72 h, dose level Control, time 3 day
# [2] = 0 mg/kg, 120 h, dose level Control, time 5 day
# [3] = 2200 mg/kg, 72 h, dose level High, time 3 day
# [4] = 2200 mg/kg, 120 h, dose level High, time 5 day
structure (smiles),measurement,setting,value
O.O.O.O.O.O.[Cl-].[Cl-].[Sr+2] [STRONTIUM CHLORIDE HEXAHYDRATE],ABSOLUTE BASOPHIL,[1],0 CELLS/uL
same,ABSOLUTE EOSINOPHIL,[1],151.33 CELLS/uL
same,ABSOLUTE LYMPHOCYTE,[1],10599.5 CELLS/uL
same,ABSOLUTE MONOCYTE,[1],109.5 CELLS/uL
same,ABSOLUTE SEGMENTED NEUTROPHIL,[1],1139.67 CELLS/uL
same,BASOPHIL,[1],0%
same,EOSINOPHIL,[1],0.83%
same,ERYTHROCYTE COUNT,[1],5.54 x10E6/uL
same,HEMATOCRIT,[1],35.35%
same,HEMOGLOBIN,[1],13.22 G/DL
same,LEUKOCYTE COUNT,[1],12 x10E3/uL
same,LYMPHOCYTE,[1],89%
same,MEAN CORPUSCULAR HEMOGLOBIN,[1],23.88 pg
same,MEAN CORPUSCULAR HEMOGLOBIN CONCENTRATION,[1],37.4 G/DL
same,MEAN CORPUSCULAR VOLUME,[1],63.85 fL
same,MONOCYTE,[1],1%
same,NEUTROPHIL,[1],9.17%
same,NUCLEATED RED BLOOD CELLS,[1],0 /100WBC
same,PLATELET COUNT,[1],1333.33 x10E3/uL
same,ALANINE AMINOTRANSFERASE,[1],53.17 u/L
same,ALBUMIN,[1],4.32 G/DL
same,ALKALINE PHOSPHATASE,[1],404.33 u/L
same,ASPARTATE AMINOTRANSFERASE,[1],83.17 u/L
same,BLOOD UREA NITROGEN,[1],15.67 mg/dL
same,CARBON DIOXIDE,[1],27.33 mmol/L
same,CHLORIDE,[1],101.83 MEQ/L
same,CHOLESTEROL,[1],68.67 mg/dL
same,CREATINE PHOSPHOKINASE,[1],276.17 u/L
same,CREATININE,[1],0.18 mg/dL
same,GLUCOSE,[1],163.5 mg/dL
same,LACTATE DEHYDROGENASE,[1],144.67 u/L
same,LIPASE,[1],8.83 u/L
same,PHOSPHORUS,[1],11.72 mg/dL
same,POTASSIUM,[1],5.99 MEQ/L
same,SODIUM,[1],143.57 MEQ/L
same,TOTAL BILIRUBIN,[1],0.2 mg/dL
same,TOTAL PROTEIN,[1],6.1 G/DL
same,URIC ACID,[1],1.38 mg/dL
same,ABSOLUTE BASOPHIL,[2],0 CELLS/uL
same,ABSOLUTE EOSINOPHIL,[2],248.67 CELLS/uL
same,ABSOLUTE LYMPHOCYTE,[2],12977.83 CELLS/uL
same,ABSOLUTE MONOCYTE,[2],19.67 CELLS/uL
same,ABSOLUTE SEGMENTED NEUTROPHIL,[2],1137.17 CELLS/uL
same,BASOPHIL,[2],0%
same,EOSINOPHIL,[2],1.67%
same,ERYTHROCYTE COUNT,[2],5.82 x10E6/uL
same,HEMATOCRIT,[2],36.35%
same,HEMOGLOBIN,[2],13.58 G/DL
same,LEUKOCYTE COUNT,[2],14.38 x10E3/uL
same,LYMPHOCYTE,[2],90.5%
same,MEAN CORPUSCULAR HEMOGLOBIN,[2],23.32 pg
same,MEAN CORPUSCULAR HEMOGLOBIN CONCENTRATION,[2],37.42 G/DL
same,MEAN CORPUSCULAR VOLUME,[2],62.42 fL
same,MONOCYTE,[2],0.17%
same,NEUTROPHIL,[2],7.67%
same,NUCLEATED RED BLOOD CELLS,[2],0 /100WBC
same,PLATELET COUNT,[2],1337.67 x10E3/uL
same,ALANINE AMINOTRANSFERASE,[2],48.5 u/L
same,ALBUMIN,[2],4.32 G/DL
same,ALKALINE PHOSPHATASE,[2],354.33 u/L
same,ASPARTATE AMINOTRANSFERASE,[2],80 u/L
same,BLOOD UREA NITROGEN,[2],16 mg/dL
same,CARBON DIOXIDE,[2],27.33 mmol/L
same,CHLORIDE,[2],100.33 MEQ/L
same,CHOLESTEROL,[2],68 mg/dL
same,CREATINE PHOSPHOKINASE,[2],325.17 u/L
same,CREATININE,[2],0.23 mg/dL
same,GLUCOSE,[2],172 mg/dL
same,LACTATE DEHYDROGENASE,[2],254.83 u/L
same,LIPASE,[2],8.33 u/L
same,PHOSPHORUS,[2],12.17 mg/dL
same,POTASSIUM,[2],6.28 MEQ/L
same,SODIUM,[2],143.57 MEQ/L
same,TOTAL BILIRUBIN,[2],0.18 mg/dL
same,TOTAL PROTEIN,[2],6.12 G/DL
same,URIC ACID,[2],1.78 mg/dL
same,ABSOLUTE BASOPHIL,[3],0 CELLS/uL
same,ABSOLUTE EOSINOPHIL,[3],196.33 CELLS/uL
same,ABSOLUTE LYMPHOCYTE,[3],12931 CELLS/uL
same,ABSOLUTE MONOCYTE,[3],96.33 CELLS/uL
same,ABSOLUTE SEGMENTED NEUTROPHIL,[3],1409.67 CELLS/uL
same,BASOPHIL,[3],0%
same,EOSINOPHIL,[3],1.33%
same,ERYTHROCYTE COUNT,[3],5.23 x10E6/uL
same,HEMATOCRIT,[3],33.33%
same,HEMOGLOBIN,[3],12.6 G/DL
same,LEUKOCYTE COUNT,[3],14.63 x10E3/uL
same,LYMPHOCYTE,[3],88.33%
same,MEAN CORPUSCULAR HEMOGLOBIN,[3],24.13 pg
same,MEAN CORPUSCULAR HEMOGLOBIN CONCENTRATION,[3],37.8 G/DL
same,MEAN CORPUSCULAR VOLUME,[3],63.8 fL
same,MONOCYTE,[3],0.67%
same,NEUTROPHIL,[3],9.67%
same,NUCLEATED RED BLOOD CELLS,[3],0 /100WBC
same,PLATELET COUNT,[3],1378.33 x10E3/uL
same,ALANINE AMINOTRANSFERASE,[3],57.67 u/L
same,ALBUMIN,[3],4.13 G/DL
same,ALKALINE PHOSPHATASE,[3],643.67 u/L
same,ASPARTATE AMINOTRANSFERASE,[3],69.33 u/L
same,BLOOD UREA NITROGEN,[3],15.33 mg/dL
same,CARBON DIOXIDE,[3],26.33 mmol/L
same,CHLORIDE,[3],104.67 MEQ/L
same,CHOLESTEROL,[3],80 mg/dL
same,CREATINE PHOSPHOKINASE,[3],192.67 u/L
same,CREATININE,[3],0.19 mg/dL
same,GLUCOSE,[3],177 mg/dL
same,LACTATE DEHYDROGENASE,[3],86.33 u/L
same,LIPASE,[3],8.33 u/L
same,PHOSPHORUS,[3],12.27 mg/dL
same,POTASSIUM,[3],6.12 MEQ/L
same,SODIUM,[3],145.67 MEQ/L
same,TOTAL BILIRUBIN,[3],0.27 mg/dL
same,TOTAL PROTEIN,[3],5.8 G/DL
same,URIC ACID,[3],1.97 mg/dL
same,ABSOLUTE BASOPHIL,[4],0 CELLS/uL
same,ABSOLUTE EOSINOPHIL,[4],176 CELLS/uL
same,ABSOLUTE LYMPHOCYTE,[4],13256.67 CELLS/uL
same,ABSOLUTE MONOCYTE,[4],0 CELLS/uL
same,ABSOLUTE SEGMENTED NEUTROPHIL,[4],1734 CELLS/uL
same,BASOPHIL,[4],0%
same,EOSINOPHIL,[4],1%
same,ERYTHROCYTE COUNT,[4],5.42 x10E6/uL
same,HEMATOCRIT,[4],34.13%
same,HEMOGLOBIN,[4],13.03 G/DL
same,LEUKOCYTE COUNT,[4],15.17 x10E3/uL
same,LYMPHOCYTE,[4],87.33%
same,MEAN CORPUSCULAR HEMOGLOBIN,[4],24.13 pg
same,MEAN CORPUSCULAR HEMOGLOBIN CONCENTRATION,[4],38.23 G/DL
same,MEAN CORPUSCULAR VOLUME,[4],63.13 fL
same,MONOCYTE,[4],0%
same,NEUTROPHIL,[4],11.67%
same,NUCLEATED RED BLOOD CELLS,[4],0 /100WBC
same,PLATELET COUNT,[4],1262.67 x10E3/uL
same,ALANINE AMINOTRANSFERASE,[4],42.33 u/L
same,ALBUMIN,[4],3.97 G/DL
same,ALKALINE PHOSPHATASE,[4],573.67 u/L
same,ASPARTATE AMINOTRANSFERASE,[4],58.67 u/L
same,BLOOD UREA NITROGEN,[4],16.67 mg/dL
same,CARBON DIOXIDE,[4],29 mmol/L
same,CHLORIDE,[4],99 MEQ/L
same,CHOLESTEROL,[4],78 mg/dL
same,CREATINE PHOSPHOKINASE,[4],220 u/L
same,CREATININE,[4],0.2 mg/dL
same,GLUCOSE,[4],155.33 mg/dL
same,LACTATE DEHYDROGENASE,[4],172.33 u/L
same,LIPASE,[4],8.67 u/L
same,PHOSPHORUS,[4],11.03 mg/dL
same,POTASSIUM,[4],6.01 MEQ/L
same,SODIUM,[4],142.9 MEQ/L
same,TOTAL BILIRUBIN,[4],0.17 mg/dL
same,TOTAL PROTEIN,[4],5.67 G/DL
same,URIC ACID,[4],1.5 mg/dL
